Where two headings read alike, the source gives them in different places.
Assays:
[1] = tested on: MOLM-13 cells; test: Cell growth inhibition, AML cell line MOLM-13 (CyQuant, day 7); format: cell-based; conditions: Homo sapiens
Source text: (§1) Among other things, provided technologies are useful for treating various diseases, disorders, or conditions. For example, in some embodiments, provided technologies are useful for treating cancer as confirmed in the present Example. […] In some embodiments, provided technologies can inhibit cell proliferation. In some embodiments, the present disclosure provides technologies for assessing various technologies, e.g., compounds, compositions, or methods. Among other things, the present Example provides technologies, e.g., cell growth inhibition assay, for assessing various technologies. […] In some embodiments, the following cell growth inhibition methods are utilized to assess provided technologies.
AML: AML cell line MOLM-13 cells were cultured in RPMI+15% FBS and were plated at 500 cells/well in 100 uL media in a U-bottom 96-well plate. Compounds were dilute to 3×final in full media and 50 uL were added to corresponding wells. Compound and media were replenished on days 2 and 5. On day 7, cells were transferred to a 96-well black bottom plate and CyQuant was performed per manufacturer's instructions.
(§2) In some assessments, for cell growth inhibition, cells, e.g., MOLM13, NCI-H1048, and LASCPC-01 cells, were counted using a hemocytometer or automated cell counting in triplicates. In some assessments, proliferation in NEPC organoids as measured with Cell Titer Glo reagent (Promega). Growth inhibition was determined relative to vehicle control.

[2] = tested on: NCI-H1048 cells; test: Cell growth inhibition, SCLC cell line NCI-H1048 (cell count, day 11); format: cell-based, human; conditions: Homo sapiens
Source text: as §1
SCLC: SCLC cell lines NCI-H1048 and NCI-H1876 were cultured in DMEM F12 media with 5% FBS, 1% Penicillin/Streptomycin and HITES supplement (Hydrocortisone, Insulin, Transferrin, Estradiol and Sodium Selenite). NCI-H1048 cells were plated at 10,000 cells/well of a 24-well plate and NCI-H1876 cells were plated at 20,000 cells/well of a 96-well plate. Compound and media were replenished every two days out to day 11 and 10 respectively. Cells were then trypsinized and counted using either hemocytometer or an automated Countess cell counter.
as §2

[3] = molecular target: T1, KAT2A (Homo sapiens, UniProt Q92830); test: KAT2A degradation, Western Blot (Jess), MOLM-13 cells; format: cell-based; design: degrader, Western blot
T1 sequence (Q92830 whole entry): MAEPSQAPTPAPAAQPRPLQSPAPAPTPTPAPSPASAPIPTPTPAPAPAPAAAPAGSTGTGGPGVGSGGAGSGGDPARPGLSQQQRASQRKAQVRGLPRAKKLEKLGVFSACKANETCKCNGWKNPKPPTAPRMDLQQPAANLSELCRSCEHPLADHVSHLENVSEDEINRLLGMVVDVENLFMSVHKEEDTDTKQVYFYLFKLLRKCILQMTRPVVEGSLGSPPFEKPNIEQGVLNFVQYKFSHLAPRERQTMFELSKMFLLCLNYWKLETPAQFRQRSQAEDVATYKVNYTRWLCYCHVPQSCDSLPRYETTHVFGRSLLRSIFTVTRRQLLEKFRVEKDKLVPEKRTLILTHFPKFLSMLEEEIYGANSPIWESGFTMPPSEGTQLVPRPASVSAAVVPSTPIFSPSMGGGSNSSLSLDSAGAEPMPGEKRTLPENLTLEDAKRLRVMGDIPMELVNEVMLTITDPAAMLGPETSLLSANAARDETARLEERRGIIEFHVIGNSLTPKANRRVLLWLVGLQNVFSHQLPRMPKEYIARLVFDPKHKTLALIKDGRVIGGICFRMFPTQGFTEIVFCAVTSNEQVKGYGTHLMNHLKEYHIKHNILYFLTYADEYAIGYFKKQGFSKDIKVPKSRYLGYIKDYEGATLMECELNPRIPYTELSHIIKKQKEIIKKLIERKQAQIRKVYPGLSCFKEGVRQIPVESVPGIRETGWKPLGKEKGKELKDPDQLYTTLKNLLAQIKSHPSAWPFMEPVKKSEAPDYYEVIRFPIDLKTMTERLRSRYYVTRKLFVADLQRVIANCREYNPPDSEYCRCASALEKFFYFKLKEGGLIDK
Method in brief: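 MOLM-13 cells in RPMI 1640/20% FBS were treated with compound for 24 h at 37 °C. RIPA lysates (4 μg) were run on a capillary Western (Jess) with anti-KAT2A antibody and chemiluminescent detection. DC50 comes from percent protein reduction versus DMSO control.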

[4] = molecular target: T1, KAT2A; test: KAT2A degradation, Western Blot (Jess), NCI-H1048 cells; format: cell-based; design: degrader, Western blot (Jess)
Method in brief: (§3)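 DC50 came from protein loss relative to DMSO, measured by Jess capillary immunoblot of RIPA lysates with chemiluminescence read-out. Before lysis, NCI-H1048 cells in 5% FBS HITES medium were exposed to compound for 24 h at 37° C.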

[5] = molecular target: T2, KAT2B (Homo sapiens, UniProt Q92831); test: KAT2B degradation, Western Blot (Jess), NCI-H1048 cells; format: cell-based; design: degrader, Western blot (Jess)
T2 sequence (Q92831 whole entry): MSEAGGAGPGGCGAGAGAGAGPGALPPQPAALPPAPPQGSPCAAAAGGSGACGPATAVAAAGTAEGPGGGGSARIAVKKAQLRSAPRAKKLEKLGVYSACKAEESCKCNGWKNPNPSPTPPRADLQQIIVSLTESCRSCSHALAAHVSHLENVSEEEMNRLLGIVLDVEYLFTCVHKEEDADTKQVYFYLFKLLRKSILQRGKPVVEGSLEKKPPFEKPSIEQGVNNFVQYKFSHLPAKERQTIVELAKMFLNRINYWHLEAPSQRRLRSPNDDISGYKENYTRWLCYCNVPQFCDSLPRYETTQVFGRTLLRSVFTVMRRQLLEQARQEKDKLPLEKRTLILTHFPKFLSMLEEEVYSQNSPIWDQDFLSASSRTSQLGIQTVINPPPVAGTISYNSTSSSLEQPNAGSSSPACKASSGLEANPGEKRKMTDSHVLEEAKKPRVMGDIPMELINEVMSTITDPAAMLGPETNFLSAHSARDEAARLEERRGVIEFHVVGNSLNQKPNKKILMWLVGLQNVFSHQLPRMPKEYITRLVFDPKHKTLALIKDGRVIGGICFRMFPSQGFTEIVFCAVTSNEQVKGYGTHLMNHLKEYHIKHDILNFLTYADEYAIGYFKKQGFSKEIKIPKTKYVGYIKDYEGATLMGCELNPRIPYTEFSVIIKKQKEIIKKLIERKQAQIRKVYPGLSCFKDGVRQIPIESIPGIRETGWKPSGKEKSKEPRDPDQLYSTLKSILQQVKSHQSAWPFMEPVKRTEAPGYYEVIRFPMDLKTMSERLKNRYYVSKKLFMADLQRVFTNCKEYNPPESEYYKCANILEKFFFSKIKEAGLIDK
Method in brief: as §3

[6] = molecular target: T2, KAT2B; test: KAT2B degradation, Western Blot, MOLM-13 cells; format: cell-based; design: degrader, Western blot; conditions: MOLM-13, KAT2B
Procedure: MOLM-13 cells were maintained at 37° C. in 5% CO2 and 90% humidity in RPMI 1640 supplemented with 20% fetal bovine serum (FBS) and 1× penicillin/streptomycin. Cells were plated in full media at 1-2 million cells/2 mL in a 6-well tissue culture treated plate with or without compounds for 24 h at 37° C. in 5% CO2.
MOLM-13 cells or NCI-H1048 cells were washed with PBS, then lysed with RIPA buffer containing 1×protease and phosphatase inhibitors (SantaCruz Biotechnologies Cat #sc-24948A). Protein was isolated by centrifugation at 12,000×g for 10 minutes at 4° C. and supernatant was collected. Protein was quantified via Bradford assay. Samples were diluted to 4 μg lysate in 16 μL RIPA buffer and then 4 μL of Jess Sample Buffer. Samples were heated at 95° C. for 5 minutes. Samples were loaded onto 12-230 kDa Jess™ Separation Module, 8×25 capillary cartridges (SM-W004, Biotechne). Antibodies loaded were: Primary antibody for KAT2A (GCN5L2 (C26A10) Rabbit mAb (3305, CST)) and for KAT2B (PCAF (C14G9)) Rabbit mAb (3378, CST) at 1:1000 and Anti-Rabbit Detection Module for Jess™ (Cat No #DM-001, Biotechne). Signal was detected by chemiluminescence.
DC50 values were determined from percent reduction of protein as compared to the DMSO control.

[7] = 168 h, MOLM-13, day 7, CyQuant, read-out: MOLM13 GI50
[8] = 264 h, NCI-H1048, day 11, cell count, read-out: H1048 GI50
[9] = MOLM-13 cells, KAT2A, 24 h, Western Blot, vs DMSO, read-out: KAT2A MOLM-13 DC50
[10] = NCI-H1048 cells, KAT2A, 24 h, Western Blot, vs DMSO, read-out: KAT2A NCI-H1048 DC50
[11] = NCI-H1048 cells, KAT2B, 24 h, Western Blot, vs DMSO, read-out: KAT2B NCI-H1048 DC50

SMILES	GI50 [1, 7]	GI50 [2, 8]	DC50 [3, 9]	DC50 [4, 10]	DC50 [5, 11]	other results
CN1C[C@H](Nc2cnn(C)c(=O)c2Br)C[C@H](c2ccc(C(=O)N3CCN(Cc4ccc(C(=O)Nc5ccc6c(c5)CN(C5CCC(=O)NC5=O)C6=O)cc4)CC3)cc2)C1 (some centres unmarked) [Compound 2-15]	5.2 nM	2 nM	–	–	–	–
CN1C[C@H](Nc2cnn(C)c(=O)c2Br)C[C@H](c2ccc(CN3CCC(Oc4ccc(C5CCC(=O)NC5=O)cc4)CC3)cc2)C1 (some centres unmarked) [Compound 86]	1.7 nM	11 nM	< 1 nM	< 1 nM	1 to 30 nM	–
CN1C[C@H](Nc2cnn(C)c(=O)c2Br)C[C@H](c2ccc(C(=O)N3CCC4(CC3)CCN(c3ccc(C5CCC(=O)NC5=O)cc3)CC4)cc2)C1 (stereo partly drawn) [Compound 90, 3-[4-[3-[4-[(3R,5R)-5-[(5-bromo-1-methyl-6-oxo-pyridazin-4-yl)amino]-1-methyl-3-piperidyl]benzoyl]-3,9-diazaspiro[5.5]undecan-9-yl]phenyl]piperidine-2,6-dione]	0.9 nM	1.5 nM	< 1 nM	< 1 nM	< 1 nM	–
COc1cc(C2CCC(=O)NC2=O)ccc1N1CCC2(CCN(C(=O)c3ccc([C@H]4C[C@@H](Nc5cnn(C)c(=O)c5Br)CN(C)C4)cc3)CC2)CC1 (some centres unmarked) [Compound 238]	20 nM	60 nM	–	< 1 nM	1 to 30 nM	–
CN1C[C@H](Nc2cnn(C)c(=O)c2Br)C[C@H](c2ccc(C(=O)N(C)CCCN(C)c3ccc(CCCOc4cccc5c4C(=O)N(C4CCC(=O)NC4=O)C5=O)cc3)cc2)C1 (some centres unmarked) [Compound Ref-1, reference compound]	–	–	–	–	–	GI50 ([1]; MOLM-13, comparison table with Ref-1, read-out: Growth GI50): 60 nM; GI50 ([2]; NCI-H1048, comparison table with Ref-1, read-out: Growth GI50): 32 nM; EC90 ([3]; 24 h, MOLM-13, KAT2A, read-out: DC90 (the source's name)): 51 nM; DC50 ([3]; MOLM-13, KAT2A, read-out: DC50): 2.2 nM; EC90 ([6]; 24 h, read-out: DC90 (the source's name)): 1.8 nM; DC50 [6]: 0.075 nM; EC90 ([4]; 24 h, NCI-H1048, KAT2A, read-out: DC90 (the source's name)): 16 nM; DC50 ([4]; NCI-H1048, KAT2A, read-out: DC50): 1.5 nM; EC90 ([5]; 24 h, NCI-H1048, KAT2B, read-out: DC90 (the source's name)): 1 nM; DC50 ([5]; NCI-H1048, KAT2B, read-out: DC50): 0.1 nM

Source: patent US20260306640A1, “TECHNOLOGIES TARGETING CELL STATES” (Auron Therapeutics, Inc., priority 2023, published 2026)
